From patent US20250161308A1, “Methods of Treating Covid-Related Disorders” (priority 2022, published 2025)
Like-named read-outs stand apart in the source and are kept apart here.

Key:
[1] = system: pulmonary LPS-stimulated rats; assay: Immune cell infiltration in BALF, LPS acute pulmonary inflammation; format: in vivo, rat
[2] = system: pulmonary LPS-stimulated rats; assay: Cytokine expression in BALF supernatant (multiplex immunoassay), LPS acute pulmonary inflammation; format: in vivo, rat; conditions: any dose, p<0.05 vs LPS-only animals
[3] = system: chemically-induced spatial memory deficits in rats; assay: Scopolamine-induced spatial memory deficit, Morris water maze (2 mg/kg scopolamine, 5 days); format: in vivo, rat
Protocol: Exemplary compound 1a was evaluated for its ability to reverse chemically-induced spatial memory deficits in rats in the Morris water maze. The water maze consists of a large round tank (diameter 1.5 m) filled with 23-26° C. water to a depth of ˜30 cm and the water was clouded with white paint. A round platform was fixed such that it rested 2-3 cm below the surface of the water. High-contrast visual cues were placed around the tank to aid spatial orientation of test animals. Testing consisted of placing an animal into the water facing the tank wall at one of three randomly assigned starting locations and allowing the animal to swim and search for the hidden platform for up to 90 seconds. The time taken for the animal to locate the platform was recorded as the escape latency. Animals were tested 5 times per day with a 30 second rest period between trials. Testing was completed for a total of 5 consecutive days.
Animals were divided into groups (N=12 per group) depending on treatment. Control animals received only empty vehicle. Scopolamine groups received 2 mg/kg scopolamine dissolved in sterile saline by intraperitoneal (IP) injection 30 minutes prior to testing. Test compound groups received test compound at various concentrations by oral gavage (PO) dissolved in 78% sterile saline, 20% polyethylene glycol (PEG-400), and 2% DMSO 40 minutes prior to testing. Escape latencies were recorded for each animal for 5 trials each day for 5 consecutive days. Changes in escape latency curves were statistically analyzed by 2-way ANOVA with Bonferoni post-test.

Rat hippocampal neurons [4] = assay: Synaptogenesis assay; format: cell-based; conditions: for Significant increase in: Synapses: Table 4 study
Rat hippocampal neurons [5] = assay: Neurite outgrowth assay; format: cell-based; conditions: for Significant increase in: Neurite length: Table 4 study
[6] = system: THP1-differentiated macrophages; format: cell-based, human; parameters: key to Significant reduction in IL-6 / Significant reduction in TNF-α / Significant reduction in IL-1β: NS: indicates a non-significant reduction in the indicated cytokine; +: indicates a p value<0.05 in Tukey post test; ++: indicates a p value<0.01 in Tukey post test; conditions: for Significant reduction in IL-1β / Significant reduction in IL-6 / Significant reduction in TNF-α: 24 hrs LPS
[7] = system: patient in need of treatment for long COVID; assay: Treating long COVID (Example 1), clinical screening assessments; format: in vivo, human; conditions: patients with long COVID
Protocol: A Compound of Formula (I), such as Compound 2a or Compound 1a, or a pharmaceutically acceptable salt thereof, is administered orally to a patient in need of treatment for long COVID.
In some embodiments, a patient in need of treatment for long COVID is assessed with ADCS-ADL23. The ADCS-ADL23 (Galasko, 1997) is a 23-item assessment of functional impairment in terms of activities of daily living administered to the support person/caregiver. It comprises 23 questions about the subject's involvement and level of performance across items representing daily living. The questions range from basic to instrumental activities of daily living. Each item is rated from the highest level of independent performance to complete loss. The total score range is from 0 to 78, with lower scores indicating greater functional impairment.
A patient in need of treatment for long COVID is assessed with ERP P300. ERP P300 is a quantitative, unbiased, non-invasive method of recording task-related brain processing speed, elicited by external stimuli, e.g., an oddball auditory stimulus, and is a well-established functional biomarker, particularly of working memory access (Ally, 2006). ERP P300 is characterized by a stereotyped series of voltage deflections occurring after the respective odd tone to be counted, with early features (<100 msec) corresponding to unconscious sensory transmission (auditory cortex, N100), and later features produced by cognitive processing in the ventral attentional network, i.e., P300, referring to the large positive deflection at roughly 300 msec in healthy adults (young or elderly). The P300 latency is sensitive to detecting reduced synaptic transmission related to cognitive decline in AD patients and other dementias (Olichney, 2011).

[8] = system: LPS-induced cognitive deficit in CD-1 mice; assay: Rodent LPS model of brain inflammation, T-maze spontaneous alternation; format: in vivo, mouse; conditions: for Recovery (%) / Spontaneous alternation (%) Mean: LPS 250 μg/kg
[9] = system: bleomycin-induced pulmonary fibrosis in C57BL/6 mice; assay: Bleomycin-induced pulmonary fibrosis; format: in vivo, mouse; conditions: for TGF-Beta, improvement versus disease control / Collagen, improvement versus disease control / Hydroxyproline, improvement versus disease control: right lung homogenate
[10] = system: Rat primary cortical neuron cultures; format: cell-based; conditions: for Significance of neuroprotection vs 1 uM LPS: 24 h LPS

CCC(C)CN1CC2N(C(=O)c3ccc(C(F)(F)F)cc3)CCC(=O)N2[C@@H](C)C1=O (stereo partly drawn) [Compound 1a]
Neutrophils in BALF, reduction vs disease control ([1]; 0.0075 mg/kg IV): ++ (++ = >25% reduction in cell count vs disease control) | Total Leukocytes in BALF, reduction vs disease control ([1]; 0.0075 mg/kg IV): ++ (++ = >25% reduction in cell count vs disease control) | Neutrophils in BALF, reduction vs disease control ([1]; 0.075 mg/kg IV): + (+ = >5% reduction in cell count vs disease control) | Total Leukocytes in BALF, reduction vs disease control ([1]; 0.075 mg/kg IV): + (+ = >5% reduction in cell count vs disease control) | neutrophil counts compared to LPS-only controls (in words) ([1]; rat, in vivo): reduced both total leukocyte counts and neutrophil counts | total leukocyte counts compared to LPS-only controls (in words) ([1]; rat, in vivo): reduced both total leukocyte counts and neutrophil counts | cytokines with significant changes in expression in BALF supernatant (list) [2]: G-CSF, CXCL2, CXCL10, IFN-γ, and IL-1β | Cognitive Improvement ([3]; 0.5 mg/kg PO): + (+ indicates post-test p-value between 0.06 and 0.05) | Cognitive Improvement ([3]; 2 mg/kg PO): − (− indicates post-test p-value above 0.06) | Cognitive Improvement ([3]; 8 mg/kg PO): − (− indicates post-test p-value above 0.06) | synapse counts (in words) (Rat hippocampal neurons [4]): increase both measures at all doses tested | Significant increase in: Synapses (Rat hippocampal neurons [4]; 1 nM): ++++ (++++ = p < 0.0001) | Significant increase in: Synapses (Rat hippocampal neurons [4]; 10 nM): ++++ (++++ = p < 0.0001) | Significant increase in: Synapses (Rat hippocampal neurons [4]; 100 nM): ++++ (++++ = p < 0.0001) | neurite length / extension of neurites (in words) (Rat hippocampal neurons [5]): increase both measures at all doses tested | Significant increase in: Neurite length (Rat hippocampal neurons [5]; 1 nM): ++++ (++++ = p < 0.0001) | Significant increase in: Neurite length (Rat hippocampal neurons [5]; 10 nM): ++++ (++++ = p < 0.0001) | Significant increase in: Neurite length (Rat hippocampal neurons [5]; 100 nM): + (+ = p < 0.05) | Significant reduction in IL-1β ([6]; 0.1 nM): ++ (indicates a p value<0.01 in Tukey post test) | Significant reduction in IL-6 ([6]; 0.1 nM): NS | Significant reduction in TNF-α ([6]; 0.1 nM): ++ (indicates a p value<0.01 in Tukey post test) | Significant reduction in IL-1β ([6]; 10 nM): ++ (indicates a p value<0.01 in Tukey post test) | Significant reduction in IL-6 ([6]; 10 nM): ++ (indicates a p value<0.01 in Tukey post test) | Significant reduction in TNF-α ([6]; 10 nM): ++ (indicates a p value<0.01 in Tukey post test) | Significant reduction in IL-1β ([6]; 1000 nM): ++ (indicates a p value<0.01 in Tukey post test) | Significant reduction in IL-6 ([6]; 1000 nM): + (indicates a p value<0.05 in Tukey post test) | Significant reduction in TNF-α ([6]; 1000 nM): ++ (indicates a p value<0.01 in Tukey post test) | expression of IL-1β (in words) ([6]; at at least one tested dose): significantly reduced the expression of IL-1β and TNF-α | expression of IL-6 (in words) ([6]; at at least one tested dose): significantly reduced the expression of IL-6 | expression of TNF-α (in words) ([6]; at at least one tested dose): significantly reduced the expression of IL-1β and TNF-α | patient outcome as measured by one or more of the screening assessments [7]: reduces the rate of decline, stabilizes, or improves patient outcome | safety and tolerability [7]: acceptable safety and tolerability | Recovery (%) ([8]; 0.5 mg/kg p.o. 14 days): 17% | Spontaneous alternation (%) Mean ([8]; 0.5 mg/kg p.o. 14 days): 49% | Spontaneous alternation (%) Mean ([8]; 0.5 mg/kg p.o. 14 days, listed as Cmpd la): 48.6% | Recovery (%) ([8]; 2 mg/kg p.o. 14 days): 56% | Spontaneous alternation (%) Mean ([8]; 2 mg/kg p.o. 14 days): 59% | Spontaneous alternation (%) Mean ([8]; 2 mg/kg p.o. 14 days, listed as Cmpd la): 58.6% | Recovery (%) ([8]; 8 mg/kg p.o. 14 days): 47% | Spontaneous alternation (%) Mean ([8]; 8 mg/kg p.o. 14 days): 56% | Spontaneous alternation (%) Mean ([8]; 8 mg/kg p.o. 14 days, listed as Cmpd la): 56.4% | Recovery (%) ([8]; 16 mg/kg p.o. 14 days): 28% | Spontaneous alternation (%) Mean ([8]; 16 mg/kg p.o. 14 days): 51% | Spontaneous alternation (%) Mean ([8]; 16 mg/kg p.o. 14 days, listed as Cmpd la): 51.4% | Recovery (%) ([8]; 32 mg/kg p.o. 14 days): 44% | Spontaneous alternation (%) Mean ([8]; 32 mg/kg p.o. 14 days): 56% | Spontaneous alternation (%) Mean ([8]; 32 mg/kg p.o. 14 days, listed as Cmpd la): 55.7% | significance of reversal of LPS-induced cognitive deficit (in words) ([8]; T-maze): significant reversal of LPS-induced cognitive deficits at 2 mg/kg | TGF-Beta, improvement versus disease control ([9]; 0.2 mg/kg po QD): +++ (+++ => 51-100% improvement v disease control) | weight loss compared to the other treatment groups ([9]; 0.8 mg/kg): slightly greater weight loss | Right Lung Weight, improvement versus disease control ([9]; 0.8 mg/kg po QD, day 21): + (+ => 5-25% improvement v disease control) | Collagen, improvement versus disease control ([9]; 0.8 mg/kg po QD): + (+ => 5-25% improvement v disease control) | TGF-Beta, improvement versus disease control ([9]; 0.8 mg/kg po QD): +++ (+++ => 51-100% improvement v disease control) | collagen in right lung homogenate versus pirfenidone (in words) ([9]; 2 mg/kg): about the same levels of collagen | Right Lung Weight, improvement versus disease control ([9]; 2 mg/kg po QD, day 21): + (+ => 5-25% improvement v disease control) | Collagen, improvement versus disease control ([9]; 2 mg/kg po QD): ++ (++ => 26-50% improvement v disease control) | Hydroxyproline, improvement versus disease control ([9]; 2 mg/kg po QD): ++ (++ => 26-50% improvement v disease control) | TGF-Beta, improvement versus disease control ([9]; 2 mg/kg po QD): +++ (+++ => 51-100% improvement v disease control) | collagen concentration in right lung homogenates (in words) ([9]; 8 mg/kg): reduced compared to the pirfenidone positive control | hydroxyproline concentration in right lung homogenates (in words) ([9]; 8 mg/kg and 2 mg/kg): lower concentrations of hydroxyproline | Right Lung Weight, improvement versus disease control ([9]; 8 mg/kg po QD, day 21): ++ (++ => 26-50% improvement v disease control) | Hydroxyproline, improvement versus disease control ([9]; 8 mg/kg po QD): + (+ => 5-25% improvement v disease control) | TGF-Beta, improvement versus disease control ([9]; 8 mg/kg po QD): + (+ => 5-25% improvement v disease control) | protection against bleomycin-induced increases in TGF-β (in words) ([9]; all doses, day 21): significantly protected against bleomycin-induced increases in TGF-β | protection against body weight loss (in words) ([9]; all treatment groups): did not protect against body weight loss | activity in treating pulmonary fibrosis in the model ([9]; mouse, in vivo): active in treating pulmonary fibrosis | Significance of neuroprotection vs 1 uM LPS ([10]; 0.1 nM): +++ (+++ indicates p<0.001) | Significance of neuroprotection vs 1 uM LPS ([10]; 1 nM): +++ (+++ indicates p<0.001) | Significance of neuroprotection vs 1 uM LPS ([10]; 10 nM): +++ (+++ indicates p<0.001) | Significance of neuroprotection vs 1 uM LPS ([10]; 100 nM): +++ (+++ indicates p<0.001) | Significance of neuroprotection vs 1 uM LPS ([10]; 1 μM): +++ (+++ indicates p<0.001) | protection of primary neurons from LPS-stimulated inflammatory toxicity ([10]; at at least one dose tested): protected primary neurons from LPS-stimulated inflammatory toxicity
